The values that follow come from patent US8058414B2, “Unnatural polymerase substrates that can sustain enzymatic synthesis of double stranded nucleic acids from a nucleic acid template and methods of use” (Life Technologies Corporation, priority 2008, dated 2011).

The target of one experiment is T1, Klenow enzyme (Escherichia coli, UniProt P00582).
T1 construct: Klenow enzyme at 37° C. for 1 minute
The experiment can be described thus: Polymerase extension of FAM labeled primer over (AAG)14 template. Particulars: for extension over (AAG)14 template (electropherogram): FIG. 12, with dCTP, FAM labeled primer. In kind it is biochemical. As to the method:
In order to determine if a polymerase would continue to extend an unnatural DNA (i.e., a DNA including moieties not present in natural DNA) comprising residues having amino groups, an experiment was designed using aminopropargyl-dUTP (deoxyuridine triphosphate) and dCTP (deoxycytidine triphosphate) which yields extended DNA having residues with terminal amino functional groups on the incorporated dUTP moieties. The dUTP used is represented by the formula: […]
The experiment was conducted using an FAM (i.e., 6-carboxyfluorescein) labeled primer over an (AAG)14 [SEQ ID NO: 1] template.
These substrates were tested against the same template/primer system used in the experiments shown in FIGS. 12A and 12B {i.e., Klenow enzyme at 37° C. for 1 minute over an (AAG)14 [SEQ ID NO: 1] template}. The concentration of the nucleotides for this experiment was 5 μM. The results of this experiment are summarized in the electropherogram of FIG. 13C.
Similar experiments were conducted over the same template for natural dCTP/dTTP, with results shown in the electropherogram of FIG. 13A, and the methylpropynyl analogs of these substrates, with results shown in the electropherogram of FIG. 13B.

The test system of experiment [1] is Therminator (NEB) DNA polymerases. Kind of experiment: Evaluation of termination and mis-incorporation properties of γ-substituted-dNTP's (capillary electrophoresis of primer extension). In kind it is biochemical. Particulars: for termination properties (overall) / extension to the first correct base / consumption of the primer / further incorporation over the 2nd correct base (template 2) / activity / incorporation / mis-incorporation: 1 μM substrate; for extension to the first correct base / consumption of the primer: after 10 minutes; for further incorporation over the 2nd correct base (template 2): after 60 minutes. The protocol: FIGS. 21A-21D are electropherograms showing the termination properties of γ-phosphate substituted dUTP analogs having an O-propargyl-S-substituent at the 5 position over a p(dA) template.
[drawing 12] wherein R1 is a methyl group. The substrate concentration was 1 μM. FIG. 21A is an electropherogram for the primer. FIGS. 21B-D are the electropherograms after 10, 30 and 60 minutes of extension, respectively.
FIGS. 22A-22D are electropherograms showing the mis-incorporation properties of γ-phosphate substituted dUTP analogs having an O-propargyl-S-substituent at the 5 position and a benzyl group as a γ-phosphate substituent. The nucleotide analog used in these experiments had the same general structure as set forth above in the description of FIGS. 21A-21D. For these experiments, all reactions were conducted for 10 minutes at a substrate concentration of 1 μM using Mg^2+. Two templates were used:
General procedure for evaluation of termination properties of γ-substituted-dNTP's comprising silver ion cleavable linker arms attached to the base. All evaluations performed with Therminator (NEB) DNA polymerases were 3′ to 5′ exonuclease negative. Three types of templates were used in testing each substrate, where N denotes the complement of the base that is being evaluated for its termination properties, and the underlined portion of the target is the priming site: 1) a single correct base immediately after the priming site followed by incorrect bases; 2) two correct bases immediately after the priming site followed by incorrect bases; 3) each incorrect base followed by the correct base and then additional incorrect bases. The first two primers were used to show incorporation and termination, while the third set of templates was used to study mis-incorporation. All substrates were evaluated by capillary electrophoresis with analysis for extension of 0, 1, or 2 bases from a fluorescein labeled −21 M13 primer (the binding site of the primer corresponds to the underlined portion of the templates shown below).
Templates were pre-hybridized to the primer at 2 μM final concentration. The final assay concentration of the primer/template hybrid was 40 nM.
Unless otherwise noted, substrates were tested at 1 μM final concentration with 1 μL of the appropriate commercial enzyme at the concentration supplied by the manufacturer (usually 2-5 U/μL in 2× buffer composed of 40 mM Tris, pH 7.6, 10 mM DTT, 10 mM […] and 30 mM isocitrate). Each buffer was used at 1× in the final assay.
Generally, assays were set up as 10 μL final volume and run at 65° C. The termination properties were evaluated at 10 minutes, 30 minutes and 1 hr. At the end of each reaction, […] of the reaction mix was pipetted into 25 μL of 0.5 M EDTA, to quench the reaction, in a streptavidin coated microtiter plate well (Applied Biosystems Part No. 4357279) to capture the biotin labeled template for purification of the primer. Plates were shaken at room temperature for 10 minutes. Excess fluid was discarded and the microtiter wells were washed 3× with 4×SSC containing 0.1% Tween 20. Plates were centrifuged briefly upside down to remove excess buffer. To remove the primer from the template, 20 μL of HiDi Formamide (Applied Biosystems Part No. 4311320) was added with size ladder (LIZ® dye-labeled SNPlex™ internal size standard) to each well. The plate was incubated at 50° C. with shaking for 10 minutes. […] of the HiDi Formamide solution was transferred to a 96 well plate (Applied Biosystems Part No. N8010560) and covered with a 96 well plate septa (Applied Biosystems Part No. 4315933). Samples were separated electrophoretically on an AB 3100XL with a 36 cm capillary with POP6™ polymer separating media. The peaks were analyzed with either GeneScan® Software or Peak Scanner™ software, both from Applied Biosystems.

The mark [2] stands for this setting: 5 μM substrate, after 30 minutes.

Some results are limits rather than exact numbers.

T1 sequence (P00582 324-928): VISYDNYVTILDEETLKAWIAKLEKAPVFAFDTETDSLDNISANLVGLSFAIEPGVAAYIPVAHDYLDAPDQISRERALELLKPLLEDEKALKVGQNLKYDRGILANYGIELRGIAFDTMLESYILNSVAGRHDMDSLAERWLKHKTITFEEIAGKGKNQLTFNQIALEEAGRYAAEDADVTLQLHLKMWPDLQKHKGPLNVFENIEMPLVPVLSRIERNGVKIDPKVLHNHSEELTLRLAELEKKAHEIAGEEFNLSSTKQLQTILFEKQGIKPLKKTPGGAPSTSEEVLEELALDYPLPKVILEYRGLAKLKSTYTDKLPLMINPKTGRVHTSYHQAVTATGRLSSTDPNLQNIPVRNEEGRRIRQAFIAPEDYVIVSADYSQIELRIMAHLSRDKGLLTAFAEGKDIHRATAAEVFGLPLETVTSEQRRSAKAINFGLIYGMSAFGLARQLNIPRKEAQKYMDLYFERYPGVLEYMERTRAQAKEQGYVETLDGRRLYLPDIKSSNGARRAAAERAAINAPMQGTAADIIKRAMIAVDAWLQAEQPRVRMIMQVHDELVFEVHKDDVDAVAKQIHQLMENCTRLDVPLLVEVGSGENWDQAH

Regarding `CC#CCNC(=O)CO`, the “synthesis of the extension product over (AAG)14 template” value at Klenow enzyme (FIG. 13, Klenow enzyme at 37° C. for 1 minute, nucleotides 5 μM) is reported as “excellent synthesis of the extension product”.
For `NCC#Cc1cn([C@H]2C[C@H](O)[C@@H](COP(=O)(O)OP(=O)(O)OP(=O)(O)O)O2)c(=O)[nH]c1=O` [aminopropargyl-dUTP], at Klenow enzyme (42 base target template), the “extension over (AAG)14 template (electropherogram)” value is “poor extension”. For the same molecule, the “extent of extension over the template” value at Klenow enzyme (FIG. 12B, 42 base target template) is ≤ 14 bases.
On to `Nc1ncnc2c1ncn2[C@H]1C[C@H](O)[C@@H](COP(=O)(O)OP(=O)(O)OP(=O)(O)OCc2ccccc2)O1` [compound 27, γ-benzyl-dATP], for which, in experiment [1], the “termination properties (overall)” value is recorded as “excellent termination properties”, the “extension to the first correct base / consumption of the primer” value is recorded as “almost complete consumption of the primer” and the “further incorporation over the 2nd correct base (template 2)” value was “no further incorporation is observed”.
For `C[n+]1ccn(CCOP(=O)(O)OP(=O)(O)OP(=O)(O)OCC2OC(n3ccc(N)nc3=O)CC2O)c1` (stereo not drawn) [compound 28, γ-(2-(N-(3-methylimidazolium))-ethyl)-dCTP], in experiment [1], the activity result is “quite low”. In addition, in experiment [1] (after 1 hr.), the incorporation entry is on record as “significant incorporation” and the mis-incorporation result was “no mis-incorporation is observed”. Besides, in experiment [1] (setting [2]), the “consumption of the primer” value was “completely consumed” and the “extension past the first base on the GG template” value is listed as “only a trace of extension”.
For the molecule `C[n+]1ccn(CCOP(=O)(O)OP(=O)(O)OP(=O)(O)OC[C@H]2O[C@@H](n3cnc4c(=O)[nH]c(N)nc43)C[C@@H]2O)c1` [compound 29, γ-(2-(N-(3-methylimidazolium))-ethyl)-dGTP], the activity entry in experiment [1] is recorded as “quite low”. Also, in experiment [1] (after 1 hr.), the incorporation entry is listed as “significant incorporation” and the mis-incorporation result is listed as “no mis-incorporation is observed”. In addition, in experiment [1] (4 μM substrate, after 1 hr.), the “consumption of the primer” value is given as “completely consumed” and the “extension past the first base on the CC template” value is given as “only a trace of extension”.
Regarding methylpropynyl dUTP, at Klenow enzyme (42 base target template), the “extension over (AAG)14 template (electropherogram)” value was “extension to a single product”.
Turning to γ-methyl-dUTP [compound 26], in experiment [1], the “termination properties (overall)” value is listed as “excellent termination properties”, the “extension to the first correct base / consumption of the primer” value is reported as “almost complete consumption of the primer” and the “further incorporation over the 2nd correct base (template 2)” value was “No further incorporation is observed”. Also, in experiment [1] (listed as drawing 12), the “extension to the first correct base / consumption of the primer” value was “almost complete” and the “further incorporation over the 2nd correct base (template 2)” value is given as “no observable incorporation”. In addition, the “incorporation into the AA template” value in experiment [1] (FIG. 22B, 10 minutes, 1 μM, Mg2+) is listed as “is incorporated into the AA template”. Besides, the “mis-incorporation over the dG or dT in the GA and TA templates” value in experiment [1] (FIG. 22C-D, 10 minutes, 1 μM, Mg2+) was “is not mis-incorporated”.
